Source: patent publication US20130053323A1, “METHODS AND USE RELATED TO HUMANIN AND HUMANIN-LIKE PEPTIDES” (priority 2009, published 2013)

Experiments:
FVB mice = assay: Bone mineral density by dual energy X-ray absorptiometry in FVB mice; assay type: in vivo; details: HNG 1 μg/mice/day for four weeks, vs vehicle
Experimental: Areal bone mineral density (BMD; BMC/cm^2) and BMC were measured by dual energy X-ray absorptiometry (DXA) using the Lunar PIXImus mouse densitometer (Wipro GE Healthcare, Madison, Wisc.). Ex vivo measurements were taken from FVB mice treated with Dexa and HNG for four weeks (for details see methods and materials). The measurements of left femur and tibia were performed on excised bones placed on a 1-cm-thick Plexiglas™ table. All bones compared were measured in the same scan (high-resolution scan with line spacing set at 0.01 cm). n=9-10/animals/group.
In the light of the above findings where it was observed rescuing effects of HNG (S14G) on bone growth both in vitro and in vivo, it was analyzed whether HNG (S14G) has the capacity to regulate BMD. […] Trabecular BMD in tibia (mg/cm^3) of four-week old FVB mice treated for 4 weeks was measured by using DEXA (see protocol in material and methods).

growth plate cartilage = assay: Growth plate histology, resting and proliferating chondrocyte zone (R+P); assay type: in vivo, mice; details: four weeks
Experimental: Four weeks old mice (female, FVB) were injected with Dexa dissolved in saline ([…]) subcutaneously in the neck every day for four week. Whereas, HNG (S14G) dissolved in saline (1 μg/mice) was injected intra-peritoneally, 45 minutes prior to the Dexa injection for four weeks, for details see materials and methods. The femur and tibia bones were dissected out and fixed in 4% formalin for 24 hrs, followed by decalcification in 10% EDTA and embedded in paraffin blocks. Five-micrometer-thick sections were prepared from these paraffin blocks. The sections were prepared from the tibial growth plate and stained with Van Gieson. Digital images of stained sections were collected using a Nikon Eclipse E800 microscope (Nikon Corp., Tokyo, Japan) equipped with an Olympus DP70 digital camera (Olympus Sverige AB, Solna, Sweden).
Since a positive effect of HNG (S14G) on bone growth was identified, different zones of chondrocytes were analyzed (resting, proliferative and hypertrophic) in growth plate cartilage, to identify visible changes in these zones. […] These micropgraphas also explain the longitudinal bone growth promoting effects by HNG (S14G) alone or in combination with Dexa.

NMRI nude mice = assay: Bone growth (X-ray) in tumor-xenografted NMRI nude mice; assay type: in vivo; details: HNG 1 μg/mice i.p. + bortezomib 1 mg/kg i.p. days 1, 4, 8, 11, day 13
Experimental: Male NMRI nu/nu mice (B&K Scanbur, Sweden or Taconic, Denmark) were xenografted at the age of 4 weeks (BW 18-25 g). The mice were anesthetized with 2% fluothane (Zeneca Ltd, Macclesfield, UK) supplemented with 50% N2O in oxygen. Tumor cells (NB (SH-SY5Y; 20×10^6 cells/side) or MB (D-283; 10×10^6 cells/side) in 0.1 ml medium) were implanted s.c. in the hindlegs of the animal using a 23 G needle. Tumors were measured every other day with a digital caliper, starting when they were palpable. At a tumor volume of 0.1 ml or 0.15 ml the animals were randomized into groups (1. Vehicle without tumors; 2. Vehicle with tumors; 3. HNG (S14G; 1 μg/mice); 4. CT (bortezomib; 0.8 mg/kg or 1 mg/kg); 5. HNG (S14G) 1 μg/mice+CT (bortezomib; 0.8 mg/kg or 1 mg/kg), stratified by their bodyweight and treatment started. Treatment regime was the same as in clinical settings with 2 injections/week; 2 weeks treatment (see FIG. 1, Group 1). HNG (S14G) was injected 40 min before the CT (bortezomib) injection. Tumor volume was calculated by the formula 0.44×length×width×width (Wassberg, Pahlman et al. 1997). […] The animal weight and general appearance were recorded every day throughout the experiments. […] After fixation, femur and tibia were measured with digital calipers and decalcified in 5% EDTA and then paraffin embedded. […]

[1] = tested on: neuroblastoma (SK-N-BE(2)) xenograft; assay: Tumor volume in neuroblastoma xenograft in NMRI nude mice; assay type: in vivo, human; details: bortezomib + HNG i.p., until day 13
[2] = tested on: neuroblastoma (SK-N-BE(2)) tumor xenografts; assay: Doubling time of tumors in neuroblastoma xenografts; assay type: in vivo, human; details: combination bortezomib 0.8 mg/kg i.v. + HNG 1 μg/mouse/injection i.p.; p<0.05 vs vehicle

S14G-HN (MAPRGFSCLLLLTGEIDLPVKRRA) [HNG (S14G)]
trabecular BMD in tibia (FVB mice): trend towards increased BMD | size of resting and proliferating chondrocyte zone (R+P) (growth plate cartilage; HNG (S14G)/Dexa, vs Dexa only): larger than in the Dexa only treated group | size of resting and proliferating chondrocyte zone (R+P) (growth plate cartilage; HNG alone 1 μg/mice, vs all other groups): appears to be larger | rescue of bortezomib-induced impairment of linear bone growth (NMRI nude mice; medulloblastoma xenograft): able to rescue and prevent the undesired side effects of CT (bortezomib) on linear bone growth | rescue of bortezomib-induced impairment of linear bone growth (NMRI nude mice; neuroblastoma xenograft): able to rescue and prevent the undesired side effects of CT (bortezomib) on linear bone growth | interference with anti-cancer effect of bortezomib (tumor volume) [1]: does not interfere with the anti-cancer effect | tumor doubling time [2]: significant reduction in tumor doubling time
